Measured values as given in patent US4127687A, “Prevention of fouling of marine structures such as boat hulls” (Rohm and Haas Company, priority 1976, dated 1978).
Values after ≈ are worked out from the molar mass of the structure shown.

Key:
weed = assay: Membrane Diffusion Raft Trials, weed control; type: in vivo, grass-like algal growth common in sea water; settings: membrane test, average 15 to 16 weeks of immersion
How it was run: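 Field raft test in sea water: known quantity of compound in container sealed with membrane of known porosity, diffusing into surrounding water; panels at waterline (illuminated, aerated) and flats (poorly lit, deeper). Fouling settlement inspected over about 15-16 weeks average immersion; scored 0 none, + some, ++ effective.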

barnacle = assay: Membrane Diffusion Raft Trials, barnacle control; type: in vivo, barnacles; settings: membrane test, average 15 to 16 weeks of immersion
How it was run: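 Test compound held in a plastic container sealed by a porous membrane, diffusing into surrounding seawater on raft panels alongside standard poisons and a non-toxic control membrane. Settlement timed and quantified by regular inspection; scored 0 (none), + (some) or ++ (effective), averaging 15 to 16 weeks' immersion.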

[1] = Amount of toxicant remaining in the test container after membrane diffusion raft tests; type: physicochemical; set-up: key: 0: empty or trace; +: some; + +: ample; settings: after completion of membrane diffusion raft tests
How it was run: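 Known amount of compound held in a cylindrical container sealed with a membrane of known porosity, fixed to a raft panel so toxicant diffuses into the surrounding water. Each panel carries 35 test compounds, 4 standard poisons and 1 non-toxic membrane control. After the trial, container contents inspected visually for remaining toxicant (0 = empty or trace).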

Enteromorpha spores = assay: Laboratory toxicity test (Lab Bioassay) with Enteromorpha spores; type: in vivo; settings: using Enteromorpha spores
Description: Standard laboratory toxicity tests use Enteromorpha spores (zoospores or gametes) but Ectocarpus spores and barnacle nauplii may also be used. During the spore tests additional information on the control of bacterial and diatom slimes becomes available since these organisms are unavoidably introduced with the spore inoculum.
More detailed laboratory toxicity tests on promising compounds determine LD50 values as percentage saturated solution.
^c Using Enteromorpha spores.

[2] = Water solubility by UV spectrophotometric method; type: physicochemical; settings: water; for solubility: saturated solution, Table 1, read-out: Solubility by UV method
Description: The water solubilities of several isothiazolones were determined by UV spectrophotometric measurements of saturated aqueous solution of each compound in comparison with measurement of solutions of carefully prepared known concentration as outlined in the following example.
DETERMINATION OF SOLUBILITY OF 5-CHLORO-2-(4-FLUOROPHENYL)-4-METHYL-3-ISOTHIAZOLONE OF EXAMPLE 115
A sample of 5-chloro-2-(4-fluorophenyl)-4-methyl-3-isothiazolone (0.0406 g., 1.67 × 10^-4 mole) was dissolved in 50 ml. of methanol. A 5 ml. aliquot of the solution was diluted to 1000 ml. with deionized water, providing a solution of 1.67 × 10^-5 moles/liter concentration. An ultraviolet spectrum of this solution was run using a 10 cm. cell. The absorbance (As) at the wave length of maximum absorption (279 nm.) was 1.208. The molar absorptivity, AM, was calculated from the relationship
where b and c are path length or cell thickness and concentration respectively. Thus, AM was [formula]
Another sample of the compound (0.3-0.5 g.) was stirred vigorously in 40 ml. of deionized water for approximately 72 hrs. to give a saturated solution. The mixture was filtered through very fine filter paper (Whatman No. 50) to remove all suspended solid. Small portions of the filtrate were diluted with water by various factors until an approximately mid-scale absorbance was obtained upon running an ultraviolet spectrum. Such an absorbance was obtained at a dilution of 10. The absorbance was 0.975 in a 10 cm. cell. Using the value for AM obtained earlier, in the equation

SMILES	Weed Control (weed)	Barnacle Control (barnacle)	Contents at the end of test (amount of toxicants remaining in the test container) [1]	Lab Bioassay LD50 (Enteromorpha spores)	solubility [2] [µg/mL]	Solubility by UV method: rapidly decomposes (remark) ([2]; Table 1 solubility column)
O=c1c(Cl)c(Cl)sn1Cc1ccccc1 [Example 71]	+ +	+ +	+	0.25 percentage saturated solution	52 (≈ 200 µM)	
O=c1c(Cl)c(Cl)sn1Cc1ccc(Cl)cc1 [Example 72]	+ +	+	+ +	0.015 percentage saturated solution	11 (≈ 37.3 µM)	
O=c1c(Br)c(Cl)sn1-c1ccc(Cl)cc1 [Example 93]	+ +	+ +	+ +	0.012 percentage saturated solution	1.72 (≈ 5.29 µM)	
CCCCC(CC)Cn1sc(Cl)c(Cl)c1=O (stereo not drawn) [Example 58]	+ +	+ +	+	0.0024 percentage saturated solution	30 (≈ 106 µM)	
Cc1c(Cl)sn(-c2cccc(Cl)c2)c1=O [Example 113]	+ +	+	+ +	0.013 percentage saturated solution	13 (≈ 50 µM)	
COc1cc(Cl)ccc1-n1sc(Cl)cc1=O [Example 41]	+ +	+	+ +	0.03 percentage saturated solution	55 (≈ 199 µM)	
O=c1cc(Cl)sn1Cc1ccc(Cl)cc1 [Example 32]	+ +	+	+ +	0.018 percentage saturated solution	70 (≈ 269 µM)	
Cc1c(Cl)cccc1-n1sc(Cl)c(Cl)c1=O [Example 78]	+ +	0	+	0.08 percentage saturated solution	3.7 (≈ 12.6 µM)	
COc1ccc(-n2sc(Cl)cc2=O)cc1 [Example 38]	+ +	+	+ +	0.025 percentage saturated solution	300 (≈ 1240 µM)	
CCCCC(CC)Cn1sc(Cl)cc1=O (stereo not drawn) [Example 17]	+ +	+ +	0	.013 percentage saturated solution	135 (≈ 545 µM)	
Cc1ccccc1-n1sc(Cl)c(C)c1=O [Example 118]	+ +	0	+	0.15 percentage saturated solution		
CCCCCCCCCCCCn1sc(Cl)cc1=O [Example 23]	+ +	+	+	0.02 percentage saturated solution	0.7 to 1.5 (≈ 2.3 to 4.94 µM)	
COc1c(Cl)cccc1-n1sc(Cl)cc1=O [Example 42]	+ +	+	+ +	0.03 percentage saturated solution	45 (≈ 163 µM)	
O=c1c(Br)c(Br)sn1Cc1ccc(Cl)cc1 [Example 99]	+ +	+	+ +	0.01 percentage saturated solution	1.7 (≈ 4.43 µM)	
O=c1c(Br)c(Cl)sn1Cc1ccc(Cl)cc1 [Example 91]	+ +	0	+	0.02 percentage saturated solution	3.3 (≈ 9.73 µM)	
CCOC(=O)c1ccc(-n2sc(Cl)c(C)c2=O)cc1 [Example 126]	+	+ +	+ +	0.13 percentage saturated solution		
COc1c(Cl)cccc1-n1sc(Cl)c(Cl)c1=O [Example 79]	+ +	+	+ +	0.065 percentage saturated solution		rapidly decomposes
O=c1c(Br)csn1Cc1ccc(Cl)cc1 [Example 53]	+ +	+	+ +	0.1 percentage saturated solution	18 (≈ 59.1 µM)	
O=c1c(Cl)c(Cl)sn1-c1ccc(Cl)cc1 [Example 75]	+ +	0	+ +	0.006 percentage saturated solution	3 (≈ 10.7 µM)	
CCCCCCCCCCn1scc(Br)c1=O [Example 49]	+ +	0	+	0.01 percentage saturated solution		
Cc1c(Cl)sn(-c2ccccc2C(F)(F)F)c1=O [Example 128]	+ +	0	+	0.6 percentage saturated solution		
CCCCCCCCCCCCCCn1sccc1=O [Example 7]	0	0	+ +	0.1 percentage saturated solution		
CCCCCCCCCCCCCCCCCCn1sc(Cl)cc1=O [Example 26]	0	0	+ +	1.0 percentage saturated solution		
CCCCCCn1scc(Br)c1=O [Example 47]	0	+ +	+	> 1 percentage saturated solution		
Cc1ccc(-n2sc(Cl)c(C)c2=O)cc1C [Example 122]	+ +	+ +	+ +	0.01 percentage saturated solution		
